US10654834B2 (Venenum Biodesign, LLC, priority 2016, dated 2020)

Assays:
mouse TGR5 receptor = molecular target: T1, mouse TGR5 receptor (Mus musculus, UniProt Q80SS6); test: Mouse TGR5 HTRF cAMP production assay (HEK293-EBNA cells, Cisbio cAMP HiRange kit); assay type: cell-based; conditions: HEK293-EBNA cells overexpressing mouse TGR5, HTRF cAMP assay
T1 construct: host or cells: HEK293-EBNA (293 c18, ATCC CRL10852)
T1 sequence (Q80SS6 1-329): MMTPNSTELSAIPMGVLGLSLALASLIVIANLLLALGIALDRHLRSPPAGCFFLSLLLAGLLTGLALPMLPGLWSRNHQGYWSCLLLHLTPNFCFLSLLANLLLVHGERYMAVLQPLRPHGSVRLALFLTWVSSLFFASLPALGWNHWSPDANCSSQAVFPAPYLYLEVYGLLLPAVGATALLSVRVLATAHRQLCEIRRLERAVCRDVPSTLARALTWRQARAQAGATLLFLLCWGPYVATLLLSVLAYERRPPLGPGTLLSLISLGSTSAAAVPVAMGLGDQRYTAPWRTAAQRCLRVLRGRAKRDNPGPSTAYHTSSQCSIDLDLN
Procedure, shortened: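 HEK293-EBNA cells stably expressing mouse TGR5 (episomal vector) were suspended in serum-free DMEM with 500 μM IBMX and exposed to 12-point half-log compound dilutions for 1 h at room temperature. cAMP was detected by HTRF (d2-cAMP/anti-cAMP cryptate, 1 h, room temperature), giving EC50 from duplicates.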

[1] = Pharmacokinetic profile in mice after oral gavage; assay type: in vivo, mouse; conditions: mouse; fasted male Hilltop mice, 10 mg/kg oral gavage, plasma; read-out: Cmax
Procedure, shortened: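 Fasted 8-week male Hilltop mice given 10 mg/kg orally in 20% PEG400/80% 0.5% CMC + 0.25% Tween-80. EDTA plasma sampled 0-4 h, measured by LC-MS/MS (MRM, positive ion); Cmax and AUC derived non-compartmentally, values being means of three mice.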

Structure (SMILES)	EC50 (mouse TGR5 receptor)	Cmax [1]
N#Cc1ccc(CCNC(=O)[C@@H]2CCN2c2cc(N3CCC(CCCC(=O)NCS(=O)(=O)O)CC3)nc(C(F)(F)F)n2)cc1 [Compound 250, (S)-(4-(1-(6-(2-((4-cyanophenethyl)carbamoyl)azetidin-1-yl)-2-(trifluoromethyl)pyrimidin-4-yl)piperidin-4-yl)butanamido)methanesulfonic acid]	< 100 nM	7.6 ng/mL
N#Cc1ccc(CCNC(=O)[C@@H]2CCCN2c2cc(N3CCC(CCNC(=O)NCP(=O)(O)O)CC3)nc(C(F)(F)F)n2)cc1 [Compound 372, (S)-((3-(2-(1-(6-(2-((4-cyanophenethyl)carbamoyl)pyrrolidin-1-yl)-2-(trifluoromethyl)pyrimidin-4-yl)piperidin-4-yl)ethyl)ureido)methyl)phosphonic acid]	< 100 nM	105 ng/mL
N#Cc1ccc(CCNC(=O)[C@@H]2CCCN2c2cc(N3CCC(CCCC(=O)NCS(=O)(=O)O)CC3)cc(C(F)(F)F)n2)cc1 [Compound 198, (S)-(4-(1-(2-(2-((4-cyanophenethyl)carbamoyl)pyrrolidin-1-yl)-6-(trifluoromethyl)pyridin-4-yl)piperidin-4-yl)butanamido)methanesulfonic acid]	< 100 nM	6.8 ng/mL
N#Cc1ccc(CCNC(=O)[C@@H]2CCCN2c2cc(N3CCC(CCNc4c(NCCS(=O)(=O)O)c(=O)c4=O)CC3)nc(C(F)(F)F)n2)cc1 [Compound 367, (S)-2-((2-((2-(1-(6-(2-((4-cyanophenethyl)carbamoyl)pyrrolidin-1-yl)-2-(trifluoromethyl)pyrimidin-4-yl)piperidin-4-yl)ethyl)amino)-3,4-dioxocyclobut-1-en-1-yl)amino)ethanesulfonic acid]	< 100 nM	1.5 ng/mL
O=C(CCCC1CCN(c2cc(N3CCC[C@H]3C(=O)NCCc3ccc(C(F)(F)F)cc3)nc(C(F)(F)F)n2)CC1)NCCCS(=O)(=O)O [Compound 60, (S)-3-(4-(1-(2-(trifluoromethyl)-6-(2-((4-(trifluoromethyl)phenethyl)carbamoyl)pyrrolidin-1-yl)pyrimidin-4-yl)piperidin-4-yl)butanamido)propane-1-sulfonic acid]	< 100 nM	4.3 ng/mL
N#Cc1ccc(CCNC(=O)[C@@H]2CCCN2c2cc(N3CCC(CCNc4c(NCCC(=O)O)c(=O)c4=O)CC3)nc(C(F)(F)F)n2)cc1 [Compound 368, (S)-3-((2-((2-(1-(6-(2-((4-cyanophenethyl)carbamoyl)pyrrolidin-1-yl)-2-(trifluoromethyl)pyrimidin-4-yl)piperidin-4-yl)ethyl)amino)-3,4-dioxocyclobut-1-en-1-yl)amino)propanoic acid]	< 100 nM	2.5 ng/mL
N#Cc1ccc(CCNC(=O)[C@@H]2CCN2c2cc(N3CCC(CCNc4c(NCCS(=O)(=O)O)c(=O)c4=O)CC3)nc(C(F)(F)F)n2)cc1 [Compound 297, (S)-2-((2-((2-(1-(6-(2-((4-cyanophenethyl)carbamoyl)azetidin-1-yl)-2-(trifluoromethyl)pyrimidin-4-yl)piperidin-4-yl)ethyl)amino)-3,4-dioxocyclobut-1-en-1-yl)amino)ethanesulfonic acid]	< 100 nM	11 ng/mL
CN(C)CCC1CCN(c2cc(N3CCC[C@H]3C(=O)NCCc3ccc(C(F)(F)F)cc3)nc(C(F)(F)F)n2)CC1 [Compound 5]	< 100 nM	338 ng/mL
N#Cc1ccc(CCNC(=O)[C@@H]2CCN2c2cc(N3CCC(CCCC(=O)NCCNC(=N)N)CC3)nc(C(F)(F)F)n2)cc1 [Compound 282, (S)—N-(4-cyanophenethyl)-1-(6-(4-(4-((2-guanidinoethyl)amino)-4-oxobutyl)piperidin-1-yl)-2-(trifluoromethyl)pyrimidin-4-yl)azetidine-2-carboxamide]	< 100 nM	4.2 ng/mL
N#Cc1ccc(CCNC(=O)[C@@H]2CCN2c2cc(N3CCC(CCNC(=O)NCCOCCNC(=O)NCCS(=O)(=O)O)CC3)nc(C(F)(F)F)n2)cc1 [Compound 358, (S)-15-(1-(6-(2-((4-cyanophenethyl)carbamoyl)azetidin-1-yl)-2-(trifluoromethyl)pyrimidin-4-yl)piperidin-4-yl)-4,12-dioxo-8-oxa-3,5,11,13-tetraazapentadecane-1-sulfonic acid]	< 100 nM	3.4 ng/mL
N#Cc1ccc(CCNC(=O)[C@@H]2CCCN2c2cc(N3CCC(CCC(=O)O)CC3)nc(C(F)(F)F)n2)cc1 [Compound 28]	< 100 nM	75 ng/mL
N#Cc1ccc(CCNC(=O)[C@@H]2CCCN2c2cc(N3CCC(CCCC(=O)NCCNc4ncc(C(=O)NCCS(=O)(=O)O)cn4)CC3)nc(C(F)(F)F)n2)cc1 [Compound 112, (S)-2-(2-((2-(4-(1-(6-(2-((4-cyanophenethyl)carbamoyl)pyrrolidin-1-yl)-2-(trifluoromethyl)pyrimidin-4-yl)piperidin-4-yl)butanamido)ethyl)amino)-pyrimidine-5-carboxamido)ethanesulfonic acid]	< 100 nM	1.1 ng/mL

The next lines start with the values.

EC50 (mouse TGR5 receptor)	Cmax [1]	Structure (SMILES)
< 100 nM	4.1 ng/mL	N=C(N)N[C@@H](CCC(=O)NCCCC1CCN(c2cc(N3CCC[C@H]3C(=O)NCCc3ccc(C(F)(F)F)cc3)nc(C(F)(F)F)n2)CC1)C(=O)O [Compound 133, (S)-2-guanidino-5-oxo-5-((3-(1-(2-(trifluoromethyl)-6-((S)-2-((4-(trifluoromethyl)phenethyl)carbamoyl)pyrrolidin-1-yl)pyrimidin-4-yl)piperidin-4-yl)propyl)amino)pentanoic acid]
< 100 nM	3.3 ng/mL	N#Cc1ccc(CCNC(=O)[C@@H]2CCCN2c2cc(N3CCC(CCCC(=O)NCCS(=O)(=O)O)CC3)nc(C(F)(F)F)n2)cc1 [Compound 61, (S)-2-(4-(1-(6-(2-((4-cyanophenethyl)carbamoyl)pyrrolidin-1-yl)-2-(trifluoromethyl)pyrimidin-4-yl)-piperidin-4-yl)butanamido)ethanesulfonic acid]
< 100 nM	8.4 ng/mL	N#Cc1ccc(CCNC(=O)[C@@H]2CCN2c2cc(N3CCC(CCNC(=O)NCCOCCNC(=O)CS(=O)(=O)O)CC3)nc(C(F)(F)F)n2)cc1 [Compound 356, (S)-1-(1-(6-(2-((4-cyanophenethyl)carbamoyl)azetidin-1-yl)-2-(trifluoromethyl)pyrimidin-4-yl)piperidin-4-yl)-4,12-dioxo-8-oxa-3,5,11-triazatridecane-13-sulfonic acid]
< 100 nM	3.7 ng/mL	N#Cc1ccc(CCNC(=O)[C@@H]2CCN2c2cc(N3CCC(CCNc4c(NCC(=O)O)c(=O)c4=O)CC3)nc(C(F)(F)F)n2)cc1 [Compound 302, (S)-2-((2-((2-(1-(6-(2-((4-cyanophenethyl)carbamoyl)azetidin-1-yl)-2-(trifluoromethyl)pyrimidin-4-yl)piperidin-4-yl)ethyl)amino)-3,4-dioxocyclobut-1-en-1-yl)amino)acetic acid]
< 100 nM	30 ng/mL	N#Cc1ccc(CCNC(=O)[C@@H]2CCCN(c3cc(N4CCC(CCNC(=O)NCCC(=O)O)CC4)nc(C(F)(F)F)n3)C2)cc1 [Compound 347, (R)-3-(3-(2-(1-(6-(3-((4-cyanophenethyl)carbamoyl)piperidin-1-yl)-2-(trifluoromethyl)pyrimidin-4-yl)piperidin-4-yl)ethyl)ureido)propanoic acid]
< 100 nM	31 ng/mL	COc1cc(C(F)(F)F)ccc1CCNC(=O)[C@@H]1CCCN1c1cc(N2CCC(CCCC(=O)O)CC2)nc(C(F)(F)F)n1 [Compound 34]
